According to patent US10562854B2, “Prolyl hydroxylase inhibitors” (Aerpio Therapeutics, Inc., priority 2009, dated 2020):
Where a name gives a salt, the structure may show the parent alone. Read-outs that look alike come from different tables or passages of the source.

Experiments:
VEGF = VEGF ELISA Assay in HEK293 cells; format: cell-based; settings: Homo sapiens
Experimental: HEK293 cells are seeded in 96-well poly-lysine coated plates at 20,000 cells per well in DMEM (10% FBS, 1% NEAA, 0.1% glutamine). Following overnight incubation, the cells are washed with 100 μL of Opti-MEM (Gibco, Carlsbad, Calif.) to remove serum. Compound in DMSO is serially diluted (beginning with 100 μM) in Opti-MEM and added to the cells. The conditioned media is analyzed for VEGF with a Quantikine human VEGF immunoassay kit (R&D Systems, Minneapolis, Minn.). Optical density measurements at 450 nm are recorded using the Spectra Max 250 (Molecular Devices, Sunnyvale, Calif.). Data defined as % of DFO stimulation is used to calculate EC50 values with GraphPad Prism 4 software (San Diego, Calif.).

[1] = Solubility of salts in distilled deionized water (HPLC); format: physicochemical
Experimental: The formulator can determine the solubility of the pharmaceutically acceptable salts of the disclosed inhibitors by any method desirable. The following is a non-limiting example of a procedure for evaluating the solubility of a salt of a disclosed inhibitor. A suspension of tert-butyl-{[1-(4-chlorobenzyl)-3-hydroxy-2-oxo-1,2-dihydropyridin-4-yl]methyl}-piperazine-1-carboxylate methanesulfonate (26.6 mg) in distilled deionized water (3.0 mL) is sonicated for 20 min with water bath temperature under 25° C. The suspension is filtered to remove any insoluble salt. The clear filtrate solution (200 μL) is diluted with distilled deionized water (800 μL) and subjected to HPLC analysis. The following are results for the pharmaceutically acceptable salts outlined in Table VII above.

[2] = system: phosphoglycerate kinase (PGK) expression; assay: PGK expression in murine embryonic fibroblasts; format: cell-based; settings: wild type murine embryonic fibroblasts, 1 μM and 10 μM (FIG. 12)
Experimental: FIG. 11 depicts the up regulation of phosphoglycerate kinase (PGK) expression in wild type murine embryonic fibroblasts as a result of treatment with compound a compound disclosed in Table VIII at dosages of 1 μM (E), 10 μM (F), and 50 μM (G) vs. wild type control (H) and the lack of up regulation of PGK expression in HIF-1 knock out cells as a result of treatment with a compound disclosed in Table VIII at dosages of 1 μM (A), 10 μM (B), and 50 μM (C) and HIF-1 knock out control (D). Both cell types were treated for 7 hours.

EPO = assay: Mouse Serum EPO Assay; format: in vivo
Experimental: All animal work is conducted in accordance with the Guide for the Care and Use of Laboratory Animals (National Academy of Sciences; Copyright © 1996). Used in these experiments were 9-10 week old male C57Bl/6 mice from Charles River Laboratory (Portage, Mich.). The mice are orally dosed with vehicle (aqueous carbonate buffer, 50 mM; pH 9.0) or with the compound to be tested in vehicle at 50 mg/kg or 100 mg/kg. The animals are dosed three times: day 1 at 8 AM and 5 PM, and on day 2 at 8 AM. One hour after the first dose, unilateral arterial ligation is performed under anesthesia using isoflurane. The femoral artery is ligated proximal to the origin of the popliteal artery. The contralateral limb undergoes a sham surgical procedure. Ligation is performed in an alternating fashion between right and left hindlimbs. Two hours after the 8 AM dosing on day 2, blood is obtained by ventricular stick while the mice are anesthetized with isoflurane. Serum samples for EPO analysis are obtained using gel clot serum separation tubes. Heart, liver, and gastrocnemius muscles are harvested, snap-frozen in liquid nitrogen, and stored in −80° C. until use.
The mouse serum EPO is detected using Mouse Quantikine Erythropoietin ELISA kit from R&D Systems according to manufacturer's instructions.

S. aureus = settings: murine model of S. aureus skin infection; cited from earlier work
Staphylococcus aureus = settings: dose-dependent; cited from earlier work
[3] = HEK293 cells, head prints IC50, method calculates EC50 from % of DFO stimulation, read-out: VEGF IC50

Row | SMILES | IC50 (VEGF; [3]) [µM] | further results
1 | COc1ccccc1Cn1ccc(CN2CCCCCC2)c(O)c1=O [Compound A18, 1-(2-methoxybenzyl)-3-hydroxy-4-(azepan-1-ylmethyl)pyridin-2(1H)-one] | 29.2 | –
2 | CC(C)(C)OC(=O)N1CCN(Cc2ccn(Cc3ccc(Cl)cc3)c(=O)c2O)CC1 [Compound A41, tert-butyl 4-{[1-(4-chlorobenzyl)-3-hydroxy-2-oxo-1,2-dihydropyridin-4-yl]methyl}piperazine-1-carboxylate] | – | Solubility ([1]; distilled deionized water, sonicated 20 min, under 25° C., listed as Free base): ~1 µg/mL; IC50 (VEGF; HEK293, read-out: VEGF IC50 (μM)): 16.6 µM
3 | CC(C)(C)OC(=O)N1CCN(Cc2ccn(Cc3ccc(Cl)cc3)c(=O)c2O)CC1 [hydrochloride, tert-butyl-{[1-(4-chlorobenzyl)-3-hydroxy-2-oxo-1,2-dihydropyridin-4-yl]methyl}-piperazine-1-carboxylate] | – | Solubility [1]: 5900 µg/mL
4 | NC(Cn1ccc(=O)c(O)c1)C(=O)O (centres unmarked) [mimosine] | – | lesion size (S. aureus): reduce the lesion size; capacity of human phagocytes and whole blood to kill Staphylococcus aureus (Staphylococcus aureus): boost
5 | CC(C)(C)OC(=O)N1CCN(Cc2ccn(Cc3ccc(Cl)cc3)c(=O)c2O)CC1 [p-toluenesulfonate, tert-butyl-{[1-(4-chlorobenzyl)-3-hydroxy-2-oxo-1,2-dihydropyridin-4-yl]methyl}-piperazine-1-carboxylate] | – | Solubility [1]: 2300 µg/mL

Second part, led by results:

Row | IC50 (VEGF; [3]) [µM] | SMILES | further results
6 | 53 | COC[C@H]1CCCN1Cc1ccn(Cc2ccccc2)c(=O)c1O [Compound B5, (R)-1-benzyl-3-hydroxy-4-{[2-(methoxymethyl)pyrrolidin-1-yl]methyl}pyridin-2(1H)-one] | –
7 | 12.6 | O=c1c(O)c(CN2CCN(Cc3ccccc3)CC2)ccn1Cc1ccccc1 [Compound B9, 1-benzyl-3-hydroxy-4-[(4-benzyipiperazin-1-yl)methyl]pyridin-2(1H)-one] | –
8 | 78 | O=c1c(O)c(CN2CCN(c3ccc(Cl)nn3)CC2)ccn1Cc1ccccc1 [Compound B14, 1-benzyl-3-hydroxy-4-{[4-(6-chloropyridazin-3-yl)piperazin-1-yl]methyl}pyridin-2(1H)-one] | –
9 | 42 | O=c1c(O)c(CNCc2ccccc2)ccn1Cc1ccc(Cl)cc1 [Compound C1, 1-(4-chlorobenzyl)-3-hydroxy-4-[(4-benzylamino)methyl]pyridin-2(1H)-one] | –
10 | 27.4 | CC1CCC(NCc2ccn(Cc3ccccc3)c(=O)c2O)CC1 (centres unmarked) [Compound C17, 1-benzyl-3-hydroxy-4-[(4-methylcyclohexylamino)methyl]pyridin-2(1H)-one] | –
11 | 62.9 | O=C1NCCCCC1NCc1ccn(Cc2ccccc2)c(=O)c1O (centres unmarked) [Compound C19, 3-[(1-benzyl-3-hydroxy-2-oxo-1,2-dihydropyridin-4-yl)methylamino]azepan-2-one] | –
12 | 53 | CSCCNCc1ccn(Cc2ccccc2)c(=O)c1O [Compound C33, 1-benzyl-3-hydroxy-4-{[2-(methylthio)ethylamino]methyl}pyridin-2(1H)-one] | –
13 | 27 | Cc1ccc(S(=O)(=O)n2ccc(CN3CCC(N4CCCCC4)CC3)c(O)c2=O)cc1 [Compound D10, 1-[(4-methylphenyl)sulfonyl]-3-hydroxy-4-(1,4′-bipiperidin-1′-ylmethyl)pyridin-2(1H)-one] | –
14 | 19 | Cc1ccc(S(=O)(=O)n2ccc(CN3CCN(c4ccc(Cl)nn4)CC3)c(O)c2=O)cc1 [Compound D14, 1-[(4-methylphenyl)sulfonyl]-3-hydroxy-4-{[4-(6-chloropyridazin-3-yl)piperazin-1-yl]methyl}pyridin-2(1H)-one] | –
15 | > 100 | O=c1c(O)cccn1Cc1cccc(Cl)c1 [Compound F2, 1-(3-chlorobenzyl)-3-hydroxypyridin-2(1H)-one] | PGK expression [2]: up regulation; EC50 (EPO): 14 µM
16 | 7.4 | O=c1c(O)cccn1Cc1ccc(Cl)cc1 [Compound F3, 1-(4-chlorobenzyl)-3-hydroxypyridin-2(1H)-one] | –
